Results from ChEMBL document CHEMBL5614367, “Hydroxamic acid hybrids: Histone deacetylase inhibitors with anticancer therapeutic potency” (Eur J Med Chem, 2023).
pIC50: −log10 of the molar value. Blank lines part the entries; values can stand above or below the compound they belong to.

What was measured:
MDA-MB-231 [1] = assay: Antitumor activity against human MDA-MB-231 cells xenografted in BALB/c nude mouse assessed as tumor growth inhibition at 30 mg/kg/day, po measured every 3 days for 22 days relative to control; assay type: functional; conditions: MDA-MB-231, 528 h, time 22 day, read-out: TGI
MDA-MB-231 [2] = assay: Antitumor activity against human MDA-MB-231 cells xenografted in BALB/c nude mouse assessed as tumor growth inhibition by measuring test to control ratio at 30 mg/kg/day, po measured every 3 days for 22 days relative to control; assay type: functional; conditions: time 22 day
[3] = Metabolic stability in human liver microsomes assessed as half life by LC-MS/MS analysis; assay type: ADME, Microsome
[4] = Metabolic stability in human plasma assessed as half life by LC-MS/MS analysis; assay type: ADME, cell-free
[5] = Antiproliferative activity against human HL-60/Vinc cells; conditions: HL60/vinc
HL-60 = assay: Antiproliferative activity against human HL-60 cells; assay type: functional, cell-based
Jurkat = assay: Antiproliferative activity against human Jurkat cells; assay type: functional, cell-based
HCT-116 [6] = assay: cells; conditions: Homo sapiens
Description: Antiproliferative activity against human HCT-116 cells

[7] = Cytotoxicity against HEK293 cells; assay type: toxicity, cell-based; conditions: human
MCF7 = assay: cells; conditions: Homo sapiens
Description: Antiproliferative activity against human MCF7 cells

HL60/ADR = assay: Antiproliferative activity against human HL-60/ADR cells
WSUDLCL2 [8] = assay: Antiproliferative activity against human WSUDLCL2 cells measured after 72 hrs by CCK-8 assay; assay type: functional, cell-based; conditions: WSUDLCL2, 72 h
HEL = assay: Antiproliferative activity against human HEL cells measured after 72 hrs by CCK-8 assay; assay type: functional, cell-based
WSUDLCL2 [9] = assay: Antitumor activity against human WSUDLCL2 cells xenografted in mouse assessed as tumor growth inhibition at 50 mg/kg, ip administered for 21 days; assay type: functional; conditions: WSUDLCL2, 504 h, time 21 day, read-out: TGI
SU-DHL-2 = assay: Antiproliferative activity against human SU-DHL-2 cells measured after 72 hrs by CCK-8 assay; assay type: functional, cell-based; conditions: SU-DHL-2, 72 h
K562 [10] = assay: Antiproliferative activity against human K562 cells measured after 72 hrs by CCK-8 assay; assay type: functional, cell-based; conditions: K562, 72 h
MV4-11 = assay: Antiproliferative activity against human MV4-11 cells measured after 72 hrs by CCK-8 assay; assay type: functional, cell-based; conditions: MV4-11, 72 h
K562 [11] = assay: Antiproliferative activity against human K562 cells; assay type: functional, cell-based
CCRF-HSB-2 = assay: Antiproliferative activity against human CCRF-HSB-2 cells; assay type: functional, cell-based
MOLT-4 = assay: Antiproliferative activity against human MOLT-4 cells; assay type: functional, cell-based
[12] = target: T1, Protein deacetylase HDAC6 (Homo sapiens, UniProt Q9UBN7); assay: Inhibition of HDAC6 (unknown origin)
T1 sequence (Q9UBN7 whole entry): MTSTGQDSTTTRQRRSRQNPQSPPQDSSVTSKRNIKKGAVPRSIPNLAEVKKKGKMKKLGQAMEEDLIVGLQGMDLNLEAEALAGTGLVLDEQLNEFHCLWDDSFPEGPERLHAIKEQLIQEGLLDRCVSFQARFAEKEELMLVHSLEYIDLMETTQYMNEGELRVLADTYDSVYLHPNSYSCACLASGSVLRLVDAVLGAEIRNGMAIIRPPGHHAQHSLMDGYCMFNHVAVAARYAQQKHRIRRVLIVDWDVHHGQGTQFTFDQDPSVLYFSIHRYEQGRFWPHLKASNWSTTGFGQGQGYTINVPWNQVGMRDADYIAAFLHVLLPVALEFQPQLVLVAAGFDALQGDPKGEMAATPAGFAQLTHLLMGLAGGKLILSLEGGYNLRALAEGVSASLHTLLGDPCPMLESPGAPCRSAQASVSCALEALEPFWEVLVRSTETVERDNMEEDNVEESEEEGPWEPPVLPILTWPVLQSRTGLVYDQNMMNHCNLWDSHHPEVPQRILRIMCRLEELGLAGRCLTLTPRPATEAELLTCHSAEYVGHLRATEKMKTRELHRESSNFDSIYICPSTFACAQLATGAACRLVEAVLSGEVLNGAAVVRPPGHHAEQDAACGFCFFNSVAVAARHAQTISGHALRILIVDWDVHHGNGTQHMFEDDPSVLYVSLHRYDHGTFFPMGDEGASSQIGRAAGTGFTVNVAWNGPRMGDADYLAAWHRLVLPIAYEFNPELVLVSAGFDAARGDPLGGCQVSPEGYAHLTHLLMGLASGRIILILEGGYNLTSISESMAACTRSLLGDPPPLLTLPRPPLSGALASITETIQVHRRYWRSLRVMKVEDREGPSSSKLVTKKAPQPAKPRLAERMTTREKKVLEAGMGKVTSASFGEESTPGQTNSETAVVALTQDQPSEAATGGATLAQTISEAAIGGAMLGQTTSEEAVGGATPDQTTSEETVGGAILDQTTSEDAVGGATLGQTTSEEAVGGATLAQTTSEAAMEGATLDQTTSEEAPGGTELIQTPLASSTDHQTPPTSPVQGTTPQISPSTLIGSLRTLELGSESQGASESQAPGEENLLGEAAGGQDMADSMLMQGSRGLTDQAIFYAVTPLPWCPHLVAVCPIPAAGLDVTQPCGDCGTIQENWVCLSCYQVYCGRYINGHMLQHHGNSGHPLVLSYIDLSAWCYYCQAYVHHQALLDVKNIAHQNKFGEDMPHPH

TALL-1 = assay: Antiproliferative activity against human TALL-1 cells; assay type: functional, cell-based
Histone deacetylase 1 = Histone deacetylase 1 (Homo sapiens, UniProt Q13547); assay: Inhibition of HDAC1 (unknown origin) preincubated for 10 mins followed by substrate addition and measured after 30 mins by fluorescence based microplate reader analysis
Histone deacetylase 1, sequence (Q13547 whole entry): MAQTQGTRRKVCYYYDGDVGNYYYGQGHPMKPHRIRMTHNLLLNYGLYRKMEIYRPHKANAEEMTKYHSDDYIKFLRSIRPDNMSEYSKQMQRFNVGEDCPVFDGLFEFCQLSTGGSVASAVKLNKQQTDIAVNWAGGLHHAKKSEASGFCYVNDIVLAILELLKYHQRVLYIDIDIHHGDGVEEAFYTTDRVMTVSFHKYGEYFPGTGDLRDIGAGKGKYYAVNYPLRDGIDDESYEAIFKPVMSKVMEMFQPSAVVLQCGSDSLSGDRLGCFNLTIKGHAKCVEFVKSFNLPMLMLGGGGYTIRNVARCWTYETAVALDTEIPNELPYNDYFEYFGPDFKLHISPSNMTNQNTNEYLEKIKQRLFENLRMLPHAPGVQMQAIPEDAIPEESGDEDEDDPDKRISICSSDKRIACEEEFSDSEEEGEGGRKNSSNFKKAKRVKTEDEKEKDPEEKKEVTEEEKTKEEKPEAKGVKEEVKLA

HCT 116 TP53(-/-) = assay: cells; assay type: functional, cell-based; conditions: Homo sapiens, 72 h
Huh-7 = assay: cells; assay type: functional, cell-based; conditions: Homo sapiens, Huh-7, 72 h
[13] = Cytotoxicity against human HDFa cells assessed as inhibition of cell growth incubated for 72 hrs by MTT assay; assay type: toxicity, cell-based
HCT-116 [14] = assay: cells; assay type: functional, cell-based; conditions: Homo sapiens, HCT-116, 72 h
518A2 = assay: cells; assay type: functional, cell-based; conditions: Homo sapiens, 518A2, 72 h
HepG2 = assay: cells; assay type: functional, cell-based; conditions: Homo sapiens, HepG2, 72 h
Histone deacetylase 2 = Histone deacetylase 2 (Homo sapiens, UniProt Q92769); assay: Inhibition of HDAC2 (unknown origin)
Histone deacetylase 2, sequence (Q92769 whole entry): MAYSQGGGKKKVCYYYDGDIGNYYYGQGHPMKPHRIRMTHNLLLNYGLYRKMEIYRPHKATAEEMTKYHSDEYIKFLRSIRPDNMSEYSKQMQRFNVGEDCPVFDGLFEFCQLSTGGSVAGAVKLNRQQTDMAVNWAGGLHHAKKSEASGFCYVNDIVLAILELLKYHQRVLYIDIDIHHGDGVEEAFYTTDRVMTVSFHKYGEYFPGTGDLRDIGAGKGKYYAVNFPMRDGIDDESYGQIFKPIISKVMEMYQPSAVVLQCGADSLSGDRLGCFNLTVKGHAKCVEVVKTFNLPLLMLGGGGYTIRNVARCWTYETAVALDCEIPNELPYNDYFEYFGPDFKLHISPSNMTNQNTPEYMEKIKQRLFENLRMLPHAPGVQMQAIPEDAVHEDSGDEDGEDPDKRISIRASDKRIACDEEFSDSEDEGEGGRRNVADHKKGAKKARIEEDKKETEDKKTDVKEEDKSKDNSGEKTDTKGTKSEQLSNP

MDA-MB-231 [15] = assay: Antiproliferative activity against human MDA-MB-231 cells
HT-29 = assay: Antiproliferative activity against human HT-29 cells; assay type: functional, cell-based
A549 = assay: Antiproliferative activity against human A549 cells
[16] = Cytotoxicity against human NFF cells; assay type: toxicity, cell-based
MM96L = assay: Antiproliferative activity against human MM96L cells; assay type: functional, cell-based
HeLa = assay: Antiproliferative activity against human HeLa cells; assay type: functional, cell-based

Structure (SMILES): CN(C)c1nc2c(Br)c(Br)c(Br)c(Br)c2n1CCCCCCCC(=O)NO
pIC50 [5]: 5.63
pIC50 (HL-60): 5.63
pIC50 (Jurkat): 5.63
pIC50 (HCT-116 [6]): 5.63
pIC50 [7]: 5.63
pIC50 (MCF7): 5.63
pIC50 (HL60/ADR): 5.63

Structure (SMILES): C=C[C@@]1(C)CC[C@H](C(=C)CN2CCN(C(=O)CCCCCCC(=O)NO)CC2)C[C@@H]1C(=C)Cn1cccn1
pIC50 (WSUDLCL2 [8]): 6.10
pIC50 (HEL): 6.10
inhibition in vivo at 50 mg/kg (WSUDLCL2 [9]): 31.5%
pIC50 (SU-DHL-2): 6.10
pIC50 (K562 [10]): 6.10
pIC50 (MV4-11): 6.10

Structure (SMILES): O=C(NO)c1ccc(CN(Cc2nnnn2Cc2ccccc2)C(=O)c2ccccc2C(F)(F)F)cc1
pIC50 (K562 [11]): 4.65
pIC50 (HL-60): 4.65
pIC50 (CCRF-HSB-2): 4.65
pIC50 (Jurkat): 4.65
pIC50 (MOLT-4): 4.65
pIC50 [12]: 7.22
pIC50 (TALL-1): 4.65

Structure (SMILES): C=C[C@]1(C)CC[C@@H](C(=C)Cn2cccn2)C[C@H]1C(=C)CN1CCN(C(=O)CCCCCCC(=O)NO)CC1
pIC50 (WSUDLCL2 [8]): 6.00
pIC50 (HEL): 6.00
pIC50 (SU-DHL-2): 6.00
pIC50 (K562 [10]): 6.00
pIC50 (Histone deacetylase 1): 8.10
pIC50 (MV4-11): 6.00

Structure (SMILES): O=C(NO)c1ccc(NC(=O)C2(c3ccc(-c4cn[nH]c4)cc3)CCCCC2)cc1
pIC50 (Histone deacetylase 2): 8.70
pIC50 (MDA-MB-231 [15]): 7.30
pIC50 (HT-29): 7.30
pIC50 (A549): 7.30
pIC50 [16]: 7.30
pIC50 (MM96L): 7.30
pIC50 (HeLa): 7.30

Second part, led by results:

half-life [3]: 56 min
half-life [4]: > 120 min
Structure (SMILES): O=C(CCCCCCC(=O)Nc1nc2ccc(OC(F)(F)F)cc2s1)NO
inhibition in vivo at 30 mg/kg/day (MDA-MB-231 [1]): 59%
T/C (MDA-MB-231 [2]): 55%

pIC50 (HCT 116 TP53(-/-)): 6.74
pIC50 (Huh-7): 6.74
pIC50 (HCT-116 [14]): 6.74
pIC50 (518A2): 6.74
pIC50 (HepG2): 6.74
pIC50 [12]: ~6.00
Structure (SMILES): COc1ccc(-c2ocnc2-c2cc(OC)c(OC)c(OC)c2)cc1OCCCC(=O)NO
IC50 at 72 h [13]: > 50 µM
